Measurements: US20240002441A1, “PEPTIDES AND USES THEREOF IN MODULATION OF AMYLOID-BETA PROTEIN DEGRADING PROTEASES” (priority 2020, published 2024)

Assays:
Type in all cases: biochemical
NEP = target: T1, NEP (Homo sapiens, UniProt P08473); experiment: Cleavage of synthetic Aβ42 by NEP, LCMS (Example 7); conditions: NEP 0.15 ng/μL, peptide 9 μM, Aβ42 0.05 μg/μL
T1 construct: purchased R & D systems 1182-ZNC-010
Method: Synthetic Aβ40 (0.10 μg/μL) was added to a reaction mixture containing NEP (0.05 ng/μL) pre-incubated with SEQ ID NO:2 or scrambled control (9 μM) for 1 h at 37° C. Synthetic Aβ42 (0.05 μg/μL) was added to a reaction mixture containing NEP (0.15 ng/μL) preincubated with either scrambled control or SEQ ID NO:2 (9 μM) for 1 h at 37° C. Samples containing enzyme alone had only NEP buffer (Table 2). The cleavage reaction was allowed to continue in a thermomixer at 37° C. Aliquots of equal volume were taken over 24 h. Aliquots were immediately acidified with 0.1% trifluoroacetic acid (TFA) to terminate enzyme activity and snap frozen in dry ice. Samples were stored at −80° C. until analysed by LCMS.
Samples were analysed by LC-MS/MS using a quadrupole TOF mass spectrometer (MicroTOFq, Bruker Daltonics, Bremen, Germany) coupled online with a 1200 series nano-HPLC (Agilent technologies, Santa Clara, CA, USA). Samples were injected onto a zorbax 300SB reversed phase trap column with 95% solvent A (0.1% formic acid) at a flow rate of 10 μL/minute. The peptides were eluted over a 10-min gradient to 70% solvent B (80% acetonitrile, 0.1% formic acid) and separated on a 15-cm, 75-μmID zorbax 300SB nanocolumn. The eluent was nebulised and ionised using the Bruker nano-ESI source with a capillary voltage of 4500 V, dry gas at 180° C., flow rate of 5 L/minute and nebuliser gas pressure at 300 mbar. […]

ECE2 = target: T2, ECE2 (Homo sapiens, UniProt P0DPD6); experiment: QFS assay of Aβ-degrading enzymes: ECE2 (Example 6)
T2 construct: purchased R & D systems 1645-ZN-010
T2 sequence (P0DPD6 1-811): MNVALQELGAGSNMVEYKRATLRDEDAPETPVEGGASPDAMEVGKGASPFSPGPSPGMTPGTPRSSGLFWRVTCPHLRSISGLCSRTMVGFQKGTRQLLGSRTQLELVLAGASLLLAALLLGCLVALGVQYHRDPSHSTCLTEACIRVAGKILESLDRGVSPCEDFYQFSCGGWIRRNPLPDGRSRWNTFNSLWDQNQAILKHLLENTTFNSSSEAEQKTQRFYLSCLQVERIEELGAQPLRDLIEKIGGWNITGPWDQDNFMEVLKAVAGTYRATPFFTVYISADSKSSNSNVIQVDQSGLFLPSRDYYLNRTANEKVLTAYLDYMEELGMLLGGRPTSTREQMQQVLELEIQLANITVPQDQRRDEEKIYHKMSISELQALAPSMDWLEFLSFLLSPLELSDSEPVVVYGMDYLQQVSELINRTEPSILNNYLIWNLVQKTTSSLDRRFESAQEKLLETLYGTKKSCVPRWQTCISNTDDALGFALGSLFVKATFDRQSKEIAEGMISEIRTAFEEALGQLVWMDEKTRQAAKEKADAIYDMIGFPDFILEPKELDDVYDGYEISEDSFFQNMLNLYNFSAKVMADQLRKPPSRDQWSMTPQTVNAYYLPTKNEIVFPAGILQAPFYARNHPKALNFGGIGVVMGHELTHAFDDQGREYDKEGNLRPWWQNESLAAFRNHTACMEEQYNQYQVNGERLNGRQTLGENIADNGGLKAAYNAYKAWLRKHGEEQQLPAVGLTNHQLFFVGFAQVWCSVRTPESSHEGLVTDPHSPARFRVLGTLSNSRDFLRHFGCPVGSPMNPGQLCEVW
Method: (§1) Plate reader-based enzyme assays were performed using a quenched fluorescent substrate (QFS) in a 96-well format using a SpectraMAX M4 Microplate reader (Molecular Devices). The increase in fluorescence following addition of QFS (40 μM) was taken as evidence of enzyme activity. Fluorescence was monitored over 2 h at 37° C. using κEx=320 nm and λEm=405 nm. Assays were conducted in black 96-well plates. Specific enzyme activity was expressed as a rate of substrate cleavage calculated using a standard curve of 7-methoxy-coumarin-4-acetic acid.
(§2) In all plate reader-based enzyme assays using QFS, the reaction rate (μmol of substrate cleaved/min) was calculated using linear regression analysis (GraphPad Prism software version 8.01). The reaction rates calculated were used to generate the enzyme kinetic parameters Vmax and Km through non-linear regression analysis (GraphPad Prism software, version 8.01; Michaelis-Menten equation). Where indicated, enzyme activity in the presence of peptide was expressed as a % of the enzyme alone. Data were expressed as mean±SEM and statistical significance was determined using t-tests or one-way ANOVAs followed by Tukey's post-hoc test. P<0.05 was considered as statistically significant. […]
SEQ ID NO:2 was assessed in a QFS assay against enzymes NEP, ECE1, ECE2, ACE1, ACE2, IDE and MMP-2 using the method in Example 2 and the following procedure. […]

ACE2 = target: T3, ACE2 (Homo sapiens, UniProt Q9BYF1); experiment: ACE2 enzyme kinetics study with QFS (Example 5); conditions: rhACE2 0.1 ng/μL, ACE2 QFS 0-100 μM; pre-incubation 1 h at 37° C.
T3 construct: purchased R & D systems 933-ZN-010
T3 sequence (Q9BYF1 18-805): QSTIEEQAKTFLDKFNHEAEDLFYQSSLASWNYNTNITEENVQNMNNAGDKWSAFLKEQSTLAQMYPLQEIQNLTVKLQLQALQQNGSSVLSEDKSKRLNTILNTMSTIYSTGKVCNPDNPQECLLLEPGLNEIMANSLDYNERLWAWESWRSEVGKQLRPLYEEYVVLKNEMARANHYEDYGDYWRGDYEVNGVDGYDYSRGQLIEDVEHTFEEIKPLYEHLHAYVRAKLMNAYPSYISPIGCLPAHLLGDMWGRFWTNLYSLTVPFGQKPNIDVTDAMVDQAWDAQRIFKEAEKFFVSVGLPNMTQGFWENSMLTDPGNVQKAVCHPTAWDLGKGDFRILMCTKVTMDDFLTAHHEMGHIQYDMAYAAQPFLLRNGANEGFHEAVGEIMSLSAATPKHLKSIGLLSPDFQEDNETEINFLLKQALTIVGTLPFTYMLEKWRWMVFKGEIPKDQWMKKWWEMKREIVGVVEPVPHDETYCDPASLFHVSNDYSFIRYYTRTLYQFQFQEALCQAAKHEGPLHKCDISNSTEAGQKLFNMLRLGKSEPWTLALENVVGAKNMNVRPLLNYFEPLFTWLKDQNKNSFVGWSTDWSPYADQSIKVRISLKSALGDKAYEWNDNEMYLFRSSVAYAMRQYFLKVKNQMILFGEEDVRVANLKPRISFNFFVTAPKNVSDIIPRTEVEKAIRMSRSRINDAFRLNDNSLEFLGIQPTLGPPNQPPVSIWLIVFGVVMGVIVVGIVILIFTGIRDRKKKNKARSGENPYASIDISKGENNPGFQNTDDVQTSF
Method: as §1
as §2, with “significant. In all assays conducted using 96-well plates, the reaction mixtures in each well were considered an independent experiment.” for “significant.”

T1 sequence (P08473 whole entry): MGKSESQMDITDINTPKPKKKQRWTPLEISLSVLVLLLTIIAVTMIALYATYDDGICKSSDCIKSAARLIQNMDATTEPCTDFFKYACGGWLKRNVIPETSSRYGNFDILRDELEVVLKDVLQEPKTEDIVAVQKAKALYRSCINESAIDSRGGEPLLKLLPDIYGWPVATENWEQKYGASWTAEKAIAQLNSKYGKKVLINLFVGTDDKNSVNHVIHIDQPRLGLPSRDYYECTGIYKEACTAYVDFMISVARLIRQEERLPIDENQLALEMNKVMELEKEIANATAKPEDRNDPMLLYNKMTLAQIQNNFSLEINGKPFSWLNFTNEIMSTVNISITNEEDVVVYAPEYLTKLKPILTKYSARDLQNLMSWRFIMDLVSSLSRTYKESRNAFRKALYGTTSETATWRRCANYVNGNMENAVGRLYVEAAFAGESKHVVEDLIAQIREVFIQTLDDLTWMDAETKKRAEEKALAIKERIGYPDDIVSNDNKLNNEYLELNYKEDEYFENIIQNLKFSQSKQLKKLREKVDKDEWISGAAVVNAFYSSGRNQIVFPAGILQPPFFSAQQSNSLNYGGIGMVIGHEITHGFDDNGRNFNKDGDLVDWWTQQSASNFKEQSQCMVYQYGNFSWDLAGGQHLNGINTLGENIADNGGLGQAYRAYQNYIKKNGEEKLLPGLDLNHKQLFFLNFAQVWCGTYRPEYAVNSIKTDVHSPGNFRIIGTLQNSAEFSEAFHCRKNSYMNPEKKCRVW

## H-SLFELGKMIL-NH2 [SEQ ID NO:2, H2N-SLFELGKMIL-NH2]
NEP
  amount of cleavage products Aβ1-12, Aβ1-16 and Aβ1-21 formed from Aβ42 over 24 h, compared with scrambled control: significantly higher
ECE2; peptide 2 μM (FIG. 2c)
  ECE2 activity compared with respective enzyme alone: did not increase
ECE2; peptide 0.9-26 μM
  ECE2 activity, concentration dependence: did not affect
ACE2
  vmax of rhACE2 in the presence of peptide: 0.09±0.002 μmol substrate cleaved/min
